In this assay the target is T1, Neat (CG5002) (Drosophila melanogaster, UniProt Q7K4I4).
T1 construct: coding region in pGEMHE, cRNA expressed in Xenopus laevis oocytes
T1 sequence (Q7K4I4 1-595): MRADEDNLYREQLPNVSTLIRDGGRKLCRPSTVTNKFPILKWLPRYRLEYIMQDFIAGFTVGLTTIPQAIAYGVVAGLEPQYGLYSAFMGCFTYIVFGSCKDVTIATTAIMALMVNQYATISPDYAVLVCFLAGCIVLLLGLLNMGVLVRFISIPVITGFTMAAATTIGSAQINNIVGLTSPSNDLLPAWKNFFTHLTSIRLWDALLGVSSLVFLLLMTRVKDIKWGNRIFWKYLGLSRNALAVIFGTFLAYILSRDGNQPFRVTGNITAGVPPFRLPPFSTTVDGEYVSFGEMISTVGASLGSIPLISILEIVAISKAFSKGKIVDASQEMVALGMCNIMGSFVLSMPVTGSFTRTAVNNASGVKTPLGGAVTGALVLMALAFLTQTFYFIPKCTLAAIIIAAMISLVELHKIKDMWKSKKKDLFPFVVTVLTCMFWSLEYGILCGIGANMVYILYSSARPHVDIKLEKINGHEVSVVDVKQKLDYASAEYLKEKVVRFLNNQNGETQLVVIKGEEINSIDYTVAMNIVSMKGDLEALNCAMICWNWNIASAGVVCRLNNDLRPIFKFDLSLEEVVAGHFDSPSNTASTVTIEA
The class given is cell-based. Particulars: 5% CO2/33 mM HCO3−, pH 7.5.

The values below come from article PMC12066474, “Ex vivo quantification of intracellular pH in Drosophila Malpighian tubule reveals basolateral HCO3 ^−/oxalate exchange through a novel oxalate transporter “Neat”” (Frontiers in Physiology, 2025).

On to `O=C(O)O` [HCO3 ^−], for which the “intracellular pH microelectrode in Xenopus oocytes” value is reported as “Neat demonstrated electroneutral HCO3 ^− influx in the presence of HCO3 ^−/CO2 buffered saline”.
